In patent publication US20190328869A1, “IMMUNOTHERAPEUTIC PRODUCT AND MDSC MODULATOR COMBINATION THERAPY” (Transgene SA, priority 2016, published 2019):

Assays:
HBV DNA (AAV2/8-HBV) = experiment: Serum HBV DNA (viral load) by qPCR in HBV-persistent mice; format: in vivo, C57BL/6J mice; details: sildenafil only 5, 20 or 80 mg/kg/day (groups b to d), over the experiment
Description: (§1) Graph A illustrates the median level of HBsAg determined in the serum of groups of 10 mice (groups a to h) treated with sildenafil at 5 mg/kg/day (group b), at 20 mg/kg/day (group c), or at 80 mg/kg/day (group d) alone, or with AdTG18201 (group e) alone or with a combination of AdTG18201 and sildenafil (at 5, 20, or 80 mg/kg/day, groups f, g and h, respectively). The control group a is untreated. The Y-axis indicates the median HBsAg level (ng/mL) for each group and the X-axis the time (number of days post-AAV2/8-HBV injection). Graph B illustrates the median level of HBV DNA determined in the serum of the same groups of mice by PCR. […]
(§2) The HBV persistent mice used in the study were described by Dion et al. (2013, J Virol, 87(10):5554-63). […] This allows the analysis of HBV-specific viral parameters (HBsAg, HBeAg, HBcAg and viremia) as well as immunological read-outs (ICS, ELISpot or humoral immune responses). […]
HBV DNA copy number was determined in samples using the PrimerDesign™ Genesig Advanced Kit for Hepatitis B (ref. Path-HBV, PrimerDesign) and the 7500 real time system from Applied Biosystems. Data were analyzed using the 7500 System SDS software v2.0.6. […]
The Quantitect Multiplex PCR kit (ref. 204545, Qiagen) was used to carry out the qPCR reactions. […]
The limit of quantification (LOQ) was 100 DNA copies per reaction and the limit of detection (LOD) was 10 copies per reaction. […]

HBsAg (AAV2/8-HBV) = experiment: Serum HBsAg level by ELISA in HBV-persistent mice; format: in vivo, C57BL/6J mice; details: monotherapy; sildenafil 5, 20 or 80 mg/kg/day D31-59; AdTG18201 D36, 43, 50; up to day 104
Description: as §1, with “PCR. The Y-axis indicates the median HBV DNA level (copies/mL) for each group of animals and the X-axis the time (number of days post-AAV2/8-HBV injection).” for “PCR.”
as §2
HBsAg levels in mouse serum were assessed using a commercial ELISA kit (Monolisa HBsAg Ultra, Bio-Rad, France) according to the manufacturer's protocol, except that a standard curve was established, to render the test quantitative. […]

CCCc1nn(C)c2c(=O)nc(-c3cc(S(=O)(=O)N4CCN(C)CC4)ccc3OCC)[nH]c12 [sildenafil, 1-[[3-(4,7-dihydro-1-methyl-7-oxo-3-propyl-1H-pyrazolo[4,3-d]pyrimidin-5-yl)-4-ethoxyphenyl]sulfonyl]-4-methylpiperazine]
median level of viral DNA (HBV DNA (AAV2/8-HBV)): around 10^5 copies/mL serum
HBsAg median level, course (HBsAg (AAV2/8-HBV)): no significant HBsAg decrease
